Measurements from patent publication US20170166555A1, “FUNCTIONALISED AND SUBSTITUTED INDOLES AS ANTI-CANCER AGENTS” (Novogen Limited, priority 2013, published 2017).

Tests used:
[1] = test system: CaCo2 colorectal cancer cells; assay: Anti-proliferative assay, cell-titre luminescent reagent, 72 h (GVK-BIO); type: cell-based; conditions: Homo sapiens, Caco-2, 72 h, 30, 3, 0.3 and 0.03 μM, linear regression (Tables 2-4)
Procedure, shortened: (§1)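 Luminescent cell-titre viability was read 30 min after reagent addition, following 72 h compound exposure of cells pre-cultured 24 h at 37 °C, 5% CO2. Dose sets were 30–0.03 μM (4 points) or 30–0.1 μM (6 points), giving IC50 by linear regression or EC50 by nonlinear variable-slope fit vs vehicle.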

[2] = test system: SK-N-SH neuroblastoma cells; assay: as above; type: cell-based; conditions: Homo sapiens, SK-N-SH, 30, 3, 0.3 and 0.03 μM, linear regression (Tables 2-4)
Procedure, shortened: as §1

[3] = test system: A549 non-small cell lung carcinoma cells; assay: as above; type: cell-based; conditions: Homo sapiens, A549, 72 h, 30, 3, 0.3 and 0.03 μM, linear regression (Tables 2-4), read-out: IC50/μM Lung (NSLC) A549
Procedure, shortened: as §1

[4] = test system: SK-Mel-28 melanoma cells; assay: as above; type: cell-based; conditions: Homo sapiens, SK-MEL-28, 72 h, 30, 3, 0.3 and 0.03 μM, linear regression (Tables 2-4)
Procedure, shortened: as §1

[5] = test system: DU145 prostate cancer cells; assay: as above; type: cell-based; conditions: Homo sapiens, DU-145, 72 h, 30, 3, 0.3 and 0.03 μM, linear regression (Tables 2-4)
Procedure, shortened: as §1

[6] = test system: MDA-MB-231 triple negative breast cancer cells; assay: as above; type: cell-based; conditions: Homo sapiens, MDA-MB-231, 72 h, 30, 3, 0.3 and 0.03 μM, linear regression (Tables 2-4)
Procedure, shortened: as §1

[7] = test system: PC3 prostate cancer cells; assay: as above; type: cell-based; conditions: 30, 3, 0.3 and 0.03 μM, linear regression (Tables 2-4)
Procedure, shortened: as §1

[8] = target: Tm5NM1 (Homo sapiens, UniProt P06753); assay: Pyrene-based actin filament depolymerization assay; type: biochemical; conditions: for Rate of depolymerization of Tm5NM1-containing actin filaments in the presence of compound (in words): Tm5NM1 pre-incubated with 50 μM compound, compared to F-actin alone
Experimental: FIG. 4: Impact of compounds 4015 and 4093 on Tm5NM1-regulated actin-filament depolymerization kinetics. (A, C and E) Depolymerization time course of 6 μM actin filaments (35% pyrene labelled) diluted 12-fold into F-actin buffer (100 mM NaCl, 10 mM Tris-HCl pH 7.0, 2 mM MgCl2, 1 mM EGTA, 0.2 mM CaCl2, 0.2 mM ATP, 0.5 mM DTT, 0.01% (v/v) NaN3) in the presence or absence of saturating amounts (10 μM) of Tm5NM1. Final concentration of F-actin and Tm5NM1 was 0.5 μM and 0.83 μM respectively. Tm5NM1 was pre-incubated with 50 μM 4015, 4093 or 1% (v/v) DMSO prior to mixing with F-actin. Depolymerization data is normalized to the initial fluorescence value. (B, D and F) Initial rates (V0) of depolymerization for F-actin alone or Tm5NM1/F-actin, in the presence of compound 4015 or 4093. Initial rates of depolymerization were determined from the first 3600 s, fitted to a linear regression model. Data represents mean ±SEM, averaged from n>8 replicates. **** p<0.0001, ** p<0.005.
A brief overview and rationale of the assay is as follows: to promote depolymerization, pyrene-labelled actin filaments were diluted below the critical concentration of the pointed end (0.5 μM, as defined by Pollard et al., 1986). A decline in fluorescence was measured over time as actin monomers dissociate. […] Therefore, any compound, which interacts with, and impacts Tm5NM1 function, would nullify the protective effect of Tm5NM1 on actin depolymerization.
For all assays the depolymerization of F-actin alone and F-actin-coated with the human homologue of Tm5NM1 was used as a comparative control. Briefly, Tm5NM1 was pre-incubated with F-actin for 20 minutes prior to diluting the filaments, to allow for proper assembly of the Tm5NM1 polymer.
The depolymerization of F-actin alone and F-actin-coated with Tm5NM1 was then measured in the presence of test compound and initial rates of depolymerization were compared. Tm5NM1 was pre-incubated with 50 μM 4015 and 4093 prior to being added to the actin filaments as previously described. In the presence of compound 4015, the rate of depolymerization of Tm5NM1-containing actin filaments was increased.

Chain of Tm5NM1 (P06753 1-248 isoform P06753-2): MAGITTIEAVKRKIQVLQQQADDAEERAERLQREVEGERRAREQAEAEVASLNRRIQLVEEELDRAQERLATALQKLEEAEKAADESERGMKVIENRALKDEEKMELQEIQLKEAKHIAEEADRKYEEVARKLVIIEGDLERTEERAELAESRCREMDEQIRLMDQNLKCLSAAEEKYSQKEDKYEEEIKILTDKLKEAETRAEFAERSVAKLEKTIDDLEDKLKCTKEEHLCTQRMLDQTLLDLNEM

Initial rate (V0) of depolymerization, F-actin alone ([8]; 50 μM compound, FIG. 4E and F)	Initial rate (V0) of depolymerization, Tm5NM1-containing actin ([8]; 50 μM compound, FIG. 4E and F)	Structure (SMILES)	IC50 [1]	IC50 [2]	IC50 [3]	IC50 [4]	IC50 [5]	IC50 [6]	IC50 [7]	Rate of depolymerization of Tm5NM1-containing actin filaments in the presence of compound (in words) [8]
−0.30±0.029×10^−4	−0.26±0.028×10^−4	Cc1c(C)n(CCCN(C)C)c2ccc(Oc3ccc(C(=O)Nc4ccc(F)cc4)cc3)cc12 [Compound 4093, 4-((1-(3-(dimethylamino)propyl)-2,3-dimethyl-1H-indol-5-yl)oxy)-N-(4-fluorophenyl)benzamide]	1.8 µM	2.5 µM	3 µM	0.9 µM	1.7 µM	2.1 µM	1.2 µM	no significant difference
–	–	Cc1c(C)n(CCCN(C)C)c2ccc(CN3CCN(CCc4ccccc4)CC3)cc12 [Compound 4015, 3-(2,3-dimethyl-5-((4-phenethylpiperazin-1-yl)methyl)-1H-indol-1-yl)-N,N-dimethylpropan-1-amine]	2.9 µM	4.6 µM	1.8 µM	3.9 µM	3.7 µM	3 µM	2.9 µM	increased
